Results taken from patent US20170318812A1, “Plant and Crop Growth Regulating/Biostimulant Formulations and Methods of Use” (Arysta Lifescience North America, LLC, priority 2014, published 2017).
Where “and” joins values, the source holds several entries; their conditions need not be identical. Equal values may be shown once.

System: TRZAX Triticum aestivum (Soft wheat)
Test: Ipfencarbazone biostimulant effect, early post emergence foliar application, greenhouse pots, plant height: wheat
Assay type: in vivo
Settings: for HEIGHT, percent of untreated check (APoC) / HEIGHT, treatment mean: TRZAX BRS327
Text: The original objective of this Example was to evaluate the herbicidal effect of ipfencarbazone when applied as a post emergent treatment to a range of selected crops and weeds. Unexpectedly, crop plant growth stimulation was observed. The actual species of weeds and crops are listed in the summary data tabulated below and in FIGS. 1-13. By convention each plant species has a Bayer code (5-letter name) with the scientific name for the plant referenced in FIGS. 1-13. In each Figure, each tray contains the same configuration of weeds and/or crops. In each Figure there is one replication of each treatment (six treatments in total). The top three photographs in each Figure show the Bayer Codes and bottom three photographs are aligned with the top three facilitating viewing of the same plant species. Throughout the Examples various abbreviations as conventional shorthand notation and will be appreciated by those skilled in the art. Some exemplary abbreviations include, “CV”=Co-efficient of Variation,” “LSD”=Least Significant Difference” (G/L (gram per L) AND GA/L (gram of active ingredient per L); “SC”=suspension concentrate formulation. The diluent in all treatments was water. By convention factors that are identical in all treatments (e.g. diluent and surfactant) are not listed in each treatment.
Methods: The indicated size pots (see Tables below) are filled with a specific soil, the soil properties being indicated below. The referenced crops and weeds are planted by hand in each pot. […] The experiments include six treatments each replicated three times on each crop/weed species. At a specific time after emergence each crop and weed species was treated with ipfencarbazone plus a non-ionic surfactant (NIS). In the present Example, the surfactant employed was ENERGIC™ (non-ionic surfactant). The application timing is indicated in each of the Tables (1 or 2 leaf stage) below. Ipfencarbazone plus surfactant was diluted in water and applied at a rate equivalent to about 250 L/ha. Ipfencarbazone was applied using a track sprayer. After treatment, the pots were randomized in a greenhouse. At each assessment (indicated by “days after treatment” or DAT) the height of each plant was measured. The letters next to each mean indicate the level of statistical significance.
Replications: 3, Untreated treatments: 1, Design: Randomized Complete Block (RCB), Treatment units: Treated ‘Plot’ experimental unit size, Dry Form. Unit: %, Treated ‘Plot’ experimental unit size Width: 1 meter, Treated ‘Plot’ experimental unit size Length: 1.4 meters, Application volume: 250 L/ha, Mix size: 0.15 liters, […]

[1] = Soft wheat BRS327, 15 DA-A, 62.5 g ai/ha + Energic NIS 0.2 % v/v
[2] = Soft wheat BRS327, 15 DA-A, 250 g ai/ha + Energic NIS 0.2 % v/v
[3] = Soft wheat BRS327, 15 DA-A, 1000 g ai/ha + Energic NIS 0.2 % v/v
[4] = Soft wheat BRS327, 28 DA-A, 62.5 g ai/ha + Energic NIS 0.2 % v/v
[5] = Soft wheat BRS327, 28 DA-A, 125 g ai/ha + Energic NIS 0.2 % v/v
[6] = Soft wheat BRS327, 28 DA-A, 250 g ai/ha + Energic NIS 0.2 % v/v
[7] = Soft wheat Iguaçú, 15 DA-A, 62.5 g ai/ha + Energic NIS 0.2 % v/v
[8] = Soft wheat Iguaçú, 15 DA-A, 250 g ai/ha + Energic NIS 0.2 % v/v
[9] = Soft wheat Iguaçú, 15 DA-A, 500 g ai/ha + Energic NIS 0.2 % v/v
[10] = Soft wheat Iguaçú, 15 DA-A, 1000 g ai/ha + Energic NIS 0.2 % v/v
[11] = Soft wheat Iguaçú, 28 DA-A, 62.5 g ai/ha + Energic NIS 0.2 % v/v
[12] = Soft wheat Iguaçú, 28 DA-A, 125 g ai/ha + Energic NIS 0.2 % v/v
[13] = Soft wheat Iguaçú, 28 DA-A, 250 g ai/ha + Energic NIS 0.2 % v/v
[14] = Soft wheat Iguaçú, 28 DA-A, 500 g ai/ha + Energic NIS 0.2 % v/v
[15] = Soft wheat Itaipú, 15 DA-A, 125 g ai/ha + Energic NIS 0.2 % v/v
[16] = Soft wheat Itaipú, 15 DA-A, 250 g ai/ha + Energic NIS 0.2 % v/v
[17] = Soft wheat Itaipú, 15 DA-A, 1000 g ai/ha + Energic NIS 0.2 % v/v
[18] = Soft wheat Itaipú, 28 DA-A, 125 g ai/ha + Energic NIS 0.2 % v/v
[19] = Soft wheat Itaipú, 28 DA-A, 250 g ai/ha + Energic NIS 0.2 % v/v

CC(C)N(C(=O)n1cnn(-c2ccc(Cl)cc2Cl)c1=O)c1ccc(F)cc1F [ARY-0572-001, ipfencarbazone]
Plant HEIGHT, Mean [1]: 27.2 cm | Plant HEIGHT, single plots [1]: 25.0 cm and 30.8 cm and 25.7 cm | Plant HEIGHT, Mean (Soft wheat BRS327, 15 DA-A, 125 g ai/ha + Energic NIS 0.2 % v/v): 27.6 cm | Plant HEIGHT, Mean [2]: 32.0 cm | Plant HEIGHT, single plots [2]: 31.0 cm and 32.3 cm and 32.7 cm | Plant HEIGHT, Mean (Soft wheat BRS327, 15 DA-A, 500 g ai/ha + Energic NIS 0.2 % v/v): 24.4 cm | Plant HEIGHT, Mean [3]: 17.3 cm | Plant HEIGHT, single plots [3]: 23.3 cm and 11.7 cm and 17.0 cm | Plant HEIGHT, Mean [4]: 33.0 cm | Plant HEIGHT, single plots [4]: 27.7 cm and 43.3 cm and 28.0 cm | Plant HEIGHT, Mean [5]: 35.0 cm | Plant HEIGHT, single plots [5]: 49.0 cm and 24.7 cm and 31.3 cm | Plant HEIGHT, Mean [6]: 45.6 cm | Plant HEIGHT, single plots [6]: 45.7 cm and 46.0 cm and 45.0 cm | Plant HEIGHT, Mean (Soft wheat BRS327, 28 DA-A, 500 g ai/ha + Energic NIS 0.2 % v/v): 31.6 cm | Plant HEIGHT, Mean (Soft wheat BRS327, 28 DA-A, 1000 g ai/ha + Energic NIS 0.2 % v/v): 28.2 cm | Plant HEIGHT, Mean [7]: 24.6 cm | Plant HEIGHT, single plots [7]: 20.2 cm and 28.0 cm and 25.7 cm | Plant HEIGHT, Mean (Soft wheat Iguaçú, 15 DA-A, 125 g ai/ha + Energic NIS 0.2 % v/v): 26.1 cm | Plant HEIGHT, Mean [8]: 29.9 cm | Plant HEIGHT, single plots [8]: 28.3 cm and 30.7 cm and 30.8 cm | Plant HEIGHT, Mean [9]: 23.8 cm | Plant HEIGHT, single plots [9]: 30.3 cm and 18.7 cm and 22.3 cm | Plant HEIGHT, Mean [10]: 16.3 cm | Plant HEIGHT, single plots [10]: 22.3 cm and 14.0 cm and 12.7 cm | Plant HEIGHT, Mean [11]: 29.2 cm | Plant HEIGHT, single plots [11]: 24.0 cm and 36.3 cm and 27.3 cm | Plant HEIGHT, Mean [12]: 30.1 cm | Plant HEIGHT, single plots [12]: 39.7 cm and 20.7 cm and 30.0 cm | Plant HEIGHT, Mean [13]: 43.3 cm | Plant HEIGHT, single plots [13]: 39.7 cm and 50.3 cm and 40.0 cm | Plant HEIGHT, Mean [14]: 36.8 cm | Plant HEIGHT, single plots [14]: 47.0 cm and 27.7 cm and 35.7 cm | Plant HEIGHT, Mean (Soft wheat Iguaçú, 28 DA-A, 1000 g ai/ha + Energic NIS 0.2 % v/v): 18.7 cm | Plant HEIGHT, Mean (Soft wheat Itaipú, 15 DA-A, 62.5 g ai/ha + Energic NIS 0.2 % v/v): 23.8 cm | Plant HEIGHT, Mean [15]: 25.5 cm | Plant HEIGHT, single plots [15]: 33.3 cm and 19.8 cm and 23.3 cm | Plant HEIGHT, Mean [16]: 31.4 cm | Plant HEIGHT, single plots [16]: 30.7 cm and 31.3 cm and 32.3 cm | Plant HEIGHT, Mean (Soft wheat Itaipú, 15 DA-A, 500 g ai/ha + Energic NIS 0.2 % v/v): 22.2 cm | Plant HEIGHT, Mean [17]: 15.7 cm | Plant HEIGHT, single plots [17]: 22.0 cm and 13.0 cm and 12.0 cm | Plant HEIGHT, Mean (Soft wheat Itaipú, 28 DA-A, 62.5 g ai/ha + Energic NIS 0.2 % v/v): 37.1 cm | Plant HEIGHT, Mean [18]: 32.3 cm | Plant HEIGHT, single plots [18]: 45.0 cm and 23.3 cm and 28.7 cm | Plant HEIGHT, Mean [19]: 47.8 cm | Plant HEIGHT, single plots [19]: 45.0 cm and 46.7 cm and 51.7 cm | Plant HEIGHT, Mean (Soft wheat Itaipú, 28 DA-A, 500 g ai/ha + Energic NIS 0.2 % v/v): 24.0 cm | Plant HEIGHT, Mean (Soft wheat Itaipú, 28 DA-A, 1000 g ai/ha + Energic NIS 0.2 % v/v): 18.4 cm | HEIGHT, percent of untreated check (APoC) (62.5 g ai/ha, 15 DA-A): (145.5%) | HEIGHT, treatment mean (62.5 g ai/ha, 15 DA-A): 27.2a cm | HEIGHT, percent of untreated check (APoC) (62.5 g ai/ha, 28 DA-A): (147.8%) | HEIGHT, treatment mean (62.5 g ai/ha, 28 DA-A): 33.0 a cm | HEIGHT, percent of untreated check (APoC) (125 g ai/ha, 15 DA-A): (147.6%)
